Literature values as cited in publication PMC7377474, “Preclinical characterization of CPL302-253, a selective inhibitor of PI3Kδ, as the candidate for the inhalatory treatment and prevention of Asthma” (PLoS ONE, 2020).

Target: T1, hERG (Homo sapiens, UniProt Q12809)
T1 construct: purchased DiscoverX (Eurofins) SafetyScan44
Conditions: available preclinical data; cited from earlier work

T1 sequence (Q12809 whole entry): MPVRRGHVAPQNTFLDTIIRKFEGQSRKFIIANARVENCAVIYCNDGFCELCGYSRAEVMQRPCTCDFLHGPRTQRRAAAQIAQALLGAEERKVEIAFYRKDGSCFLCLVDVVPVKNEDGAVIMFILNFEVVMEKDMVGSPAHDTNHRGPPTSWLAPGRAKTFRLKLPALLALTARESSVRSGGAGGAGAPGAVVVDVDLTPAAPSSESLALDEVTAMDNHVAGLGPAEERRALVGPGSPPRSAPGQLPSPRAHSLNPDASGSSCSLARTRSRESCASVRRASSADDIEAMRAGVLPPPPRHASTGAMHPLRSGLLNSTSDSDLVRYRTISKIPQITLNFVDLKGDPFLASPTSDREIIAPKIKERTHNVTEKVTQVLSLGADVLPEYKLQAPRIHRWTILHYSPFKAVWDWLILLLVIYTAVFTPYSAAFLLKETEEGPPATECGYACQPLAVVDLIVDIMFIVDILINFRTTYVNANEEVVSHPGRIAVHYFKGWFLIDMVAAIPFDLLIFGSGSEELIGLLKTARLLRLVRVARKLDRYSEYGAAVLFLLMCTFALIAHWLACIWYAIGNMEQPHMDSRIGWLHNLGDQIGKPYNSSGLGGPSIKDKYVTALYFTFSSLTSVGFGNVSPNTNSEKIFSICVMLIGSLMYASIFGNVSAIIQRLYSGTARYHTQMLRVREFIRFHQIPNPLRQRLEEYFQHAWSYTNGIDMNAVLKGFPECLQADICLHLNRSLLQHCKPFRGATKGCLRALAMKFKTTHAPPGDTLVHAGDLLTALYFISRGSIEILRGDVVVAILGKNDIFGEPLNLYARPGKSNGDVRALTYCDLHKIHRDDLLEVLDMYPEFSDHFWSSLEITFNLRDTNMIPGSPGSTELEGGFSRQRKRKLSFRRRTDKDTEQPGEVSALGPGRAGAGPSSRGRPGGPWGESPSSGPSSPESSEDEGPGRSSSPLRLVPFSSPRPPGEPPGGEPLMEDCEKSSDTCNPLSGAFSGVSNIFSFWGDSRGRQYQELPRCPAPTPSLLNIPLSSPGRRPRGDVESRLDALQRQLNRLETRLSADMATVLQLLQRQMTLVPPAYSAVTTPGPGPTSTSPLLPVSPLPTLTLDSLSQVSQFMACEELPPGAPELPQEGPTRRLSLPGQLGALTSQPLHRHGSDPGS

For `CC(C)N1CCN(Cc2cnc(-c3cc(-c4cccc5[nH]ccc45)cc4[nH]ncc34)o2)CC1` [Nemiralisib], the “activity towards hERG” value is listed as “has activity towards hERG”.
